Article PMC7686313, “Phase 1 study of mTORC1/2 inhibitor sapanisertib (TAK-228) in advanced solid tumours, with an expansion phase in renal, endometrial or bladder cancer” (British Journal of Cancer, 2020)

Tests used:
[1] = Dose escalation: dose-limiting toxicities and maximum tolerated dose; type: in vivo
Excerpt: This Phase 1, open-label, dose-escalation and expansion study aimed to determine the safety, tolerability and preliminary efficacy of sapanisertib in patients with advanced solid tumours. During dose-escalation, patients received one of four sapanisertib dosing schedules: once daily (QD), once weekly (QW; days 1, 8, 15 and 22), QD for 3 days on/4 days off each week (QD × 3dQW; days 1–3, 8–10, 15–17 and 22–24) and QD for 5 days on/2 days off each week (QD × 5dQW; days 1–5, 8–12, 15–19 and 22–26) in a 28-day cycle with dose escalation based on a modified Fibonacci schema.
The maximum tolerated dose (MTD) was to be determined in the QD schedule before enrolment of initial single-patient cohorts for the QW and QDx3d QW schedules. […] Subsequent dose cohorts for that schedule included 3–6 patients. […] Once the MTD was identified for each of the dosing schedules, an additional six patients were enrolled to obtain further PK and safety data prior to expansion.

[2] = tested on: endometrial cancer; assay: Tumour response according to RECIST v1.1, expansion phase, endometrial cancer; type: in vivo, human; settings: expansion Endometrial cancer (n = 18)
Excerpt: Patients could be considered for enrolment in one of three disease-specific cohorts: (1) advanced or recurrent endometrial adenocarcinoma with disease progression following ≥1 prior chemotherapy regimen; (2) advanced/metastatic urothelial cancer (carcinoma of the bladder, ureter and/or renal pelvis), progressive after ≥1 prior therapy in the metastatic/unresectable setting; (3) advanced RCC after failure of ≥1 prior antivascular endothelial growth factor therapy with no prior TORC1 inhibitor therapy, or progressed on treatment with TORC1 inhibitor therapy.

In the case of `CC(C)n1nc(-c2ccc3oc(N)nc3c2)c2c(N)ncnc21` [Sapanisertib], the “Recommended Phase 2 dose” value ([1]; QD) is reported as 5 mg, the DLTs ([1]; QD 4 mg) is reported as “Grade 3 hyperglycaemia” and the DLTs ([1]; QD 6 mg) is reported as “Grade 3 maculo-papular rash; grade 3 diarrhoea; grade 3 asthenia; grade 5 ventricular fibrillation/cardiac arrest”. The DLTs ([1]; QD 7 mg) was “Grade 3 hyperglycaemia and grade 4 anaemia; grade 3 maculo-papular rash”, the “Maximum tolerated dose (MTD)” value ([1]; QD schedule) was 6 mg and the DLTs ([1]; QD × 3dQW 9 mg) was “Grade 3 hypophosphatemia”. For the same compound, the DLTs ([1]; QD × 3dQW 12 mg) was “Grade 3 stomatitis and grade 3 dehydration; grade 3 asthenia”, the DLTs ([1]; QD × 3dQW 16 mg) was “Grade 3 stomatitis” and the DLTs ([1]; QD × 3dQW 20 mg) was “Grade 3 stomatitis; grade 3 stomatitis”. The “Maximum tolerated dose (MTD)” value ([1]; QD × 3dQW schedule) was 9 mg, the DLTs ([1]; QD × 5dQW 13 mg) was “Grade 3 fatigue; grade 3 asthenia; grade 3 stomatitis” and the “Maximum tolerated dose (MTD)” value ([1]; QD × 5dQW schedule) was 7 mg. The “Recommended Phase 2 dose” value ([1]; QW) was 30 mg, the DLTs ([1]; QW 40 mg) was “Grade 3 dry mouth and fatigue; grade 3 asthenia” and the “Maximum tolerated dose (MTD)” value ([1]; QW schedule) was 40 mg. The “Best overall response CR” value [2] was 0 n (%), the “Best overall response PD” value [2] was 8 (44) n (%) and the “Best overall response PR” value [2] was 1 (6) n (%). For the same compound, the “Best overall response SD < 6 months” value [2] was 8 (44) n (%), the “Best overall response SD ≥ 6 months” value [2] was 0 n (%) and the “CBR (CR + PR + SD ≥ 6 months)” value [2] was 1 (6) n (%). The “ORR (CR + PR)” value [2] was 1 (6) n (%).
